The text below walks through data of patent publication US4166852A, “Piperazino-pyrimidines and their use as spasmolytic agents” (priority 1974, dated 1979).

Structures are written as SMILES. ≈ marks a conversion by molar mass, not a printed value. Read-outs that look alike come from different tables or passages of the source. Where only a bound is given, the exact number is not on record here.

Series [1] in a line: acute toxicity, LD 50, CD 1 mice. The note with it: mouse, in vivo. The class given is in vivo. The source says:
The acute toxicities of the compounds according to the invention have been determined on CD 1 (Charles RIVER) mice by intravenous and oral methods. The LD 50 of each compound has been calculated by the cumulative method of J. J. Reed and H. Muench, (Amer. J. Hyg., 1938, 27, 493).

For series [2], the system named is dogs. Kind of series: anti-emetic activity, apomorphine vomiting test on dogs. The series is classed as in vivo. The following applies: Canis lupus familiaris, po, dogs, orally, apomorphine; read-out: Anti-emetic activity on dogs ED 50. The source says: The anti-emetic properties of the compounds according to the invention have been shown by oral administration of apomorphine to dogs in the vomiting test according to G. Chen and C. J. Ensor, Pharmacol. exp. Therap., 98, 24 (1950).

In series [3] the test system is rat. Kind of series: catalepsy test, rat. The class given is in vivo, CD rat (Charles RIVER). The following applies: po, orally, read-out: Catalepsy AD 50. The text has this: (§1) The neuroloptic effects of the compounds according to the invention have been shown with respect to the CD rat (Charles RIVER) taken orally in the catalepsy test according to S. COURVOISIER, R. DUCROT, and L. JULOU, in Psychotropic Drugs, S. GARATTINI and V. GHETTI, Edit.--ELSEVIER Publ. Co., AMSTERDAM, LONDON, NEW YORK, PRINCETON, 1957 P. 373 and also in the traction test of CD1 (Charles RIVER) mice taken orally S. COURVOISIER, Quart. Rev. Psychiat. Neurol. 17, 25 (1956), on the one hand and also in the spontaneous motility test.

Series [4] relates to mouse. Kind of series: traction test, mouse. The series is classed as in vivo, CD1 (Charles RIVER) mice. The note with it: po, orally, read-out: Traction AD 50.
Excerpt: as §1

In series [5] the test system is mouse. Kind of series: spontaneous motility test (hypomotility), mouse. The series is classed as in vivo, mice. The following applies: po, 1 h, orally, 60 minutes before measuring, 50% reduction of mean motility, first 5 minutes, read-out: Hypomotility ED 50.
Excerpt: as §1
This latter technique comprises keeping an account of the displacements of the mice by means of a floor of metal strips which enables the spontaneous activity of the animals to be recorded during the first 5 minutes subsequent to their being introduced into the measuring chamber. The products are dispensed 60 minutes before measuring is effected and 10 mice are used per dose. The results are expressed in ED 50 which represents the dose of substance capable of reducing the mean motility of the treated animals by 50% relative to that of the sample group which has only received the dispensing carrier.

In series [6] the test system is mice. Kind of series: analgesic activity, painful abdominal torsions test with phenylbenzoquinone. The series is classed as in vivo, CD 1 (Charles RIVER) mice. The note with it: Mus musculus, po; mice, orally; read-out: Phenylbenzoquinone test on mice AD 50. The source says: The analgesic properties of the products according to the invention have been shown with CD 1 (Charles RIVER) mice in the painful abdominal torsions test with phenylbenzoquinone according to the technique of E. Siegmund, R. Cadmus and Go.Lu--Proc. Soc. Exp. Biol. Med., 95, 729, (1957).

Series [7] concerns serotonine plantar oedema. Kind of series: anti-serotonine activity, serotonine plantar oedema. The series is classed as in vivo, CD (Charles RIVER) rats. The note with it: po; rat, orally; read-out: Serotonine plantar oedema AD 50. The text has this:
(§2) The anti-serotonine activities of the compounds according to the invention have been shown by oral administration to the CD (Charles RIVER) rats using the technique of the serotonine plantar oedema (W. Theobald and R. Domenjoz--Arzneimittel Forsch, 8, 18, 1958 and with the CD 1 (Charles RIVER) mice using the technique known as "head twitch" according to S. J. Corne, R. W. Pickering and B. T. Warner, Brit. J. Pharmacol., 20, 106, (1963). The anti-serotonine activity has also been determined on the one hand on the tricoloured guinea-pig, given intravenously, according to a method derived from H. Konzet and R. Rossler, Arch. exp. Pathol, Pharmakol., 195, 71, (1940) and on the other hand in vitro with respect to the serotonine spasm of the isolated uterus of the rat according to the technique of A. Fanchamps, W. Doepfener, H. Weidman and A. Cerletti, Schw. Med. Worsch, 90, 1940, (1960).

For series [8], the system named is head twitch. Kind of series: anti-serotonine activity, head twitch. The series is classed as in vivo, CD 1 (Charles RIVER) mice. The note with it: Mus musculus, po; mice, orally; read-out: "Head-twitch" AD 50.
Series [9] has as its system serotonine bronchospasms. Kind of series: anti-serotonine activity, serotonine bronchospasms. The series is classed as in vivo, tricoloured guinea-pig. The following applies: Cavia porcellus, iv; guinea pig, intravenously; read-out: Serotonine bronchospasms ED 50.
Excerpt: as §2

Series [10] deals with serotonine. Kind of series: antiserotonine properties on the whole (all four tests). The note with it: comparison within the series. On the set-up: species or system rat, mice, guinea pig.
Excerpt: as §2

The test system of series [11] is isolated duodenum of the rabbit (acetylcholine). Kind of series: spasmolytic effect on isolated duodenum, acetylcholine spasm. The note with it: Oryctolagus cuniculus, read-out: Spasmolytic effects EC 50 with respect to acetylcholine. The class given is cell-based. The text has this:
(§3) Ges. Physiol., 102, 123, (1904) with respect to the spasms of the isolated duodenum of rabbits caused either by acetylchlorine for the spasmolytic nemotropes or by barium chloride for the spasmolytic musculotropes.

Series [12] relates to isolated duodenum of the rabbit (barium chloride). Kind of series: spasmolytic effect on isolated duodenum, barium chloride spasm. The class given is cell-based. The following applies: Oryctolagus cuniculus, read-out: Spasmolytic effects EC 50 with respect to barium chloride.
Excerpt: as §3

The test system of series [13] is isolated duodenum of the rabbit. Kind of series: spasmolytic activity overall. The class given is cell-based. The note with it: isolated duodenum of rabbits.
Excerpt: as §3

Series [14] is described as follows: solubility. The class given is physicochemical.

With `CCCCCNc1nc(Cl)c(SC)c(N2CCN(C)CC2)n1` [Example 24, 2-n.pentylamino-4-N-methylpiperazino-6-chloro-5-methylthiopyrimidine], the LD50 in series [1] (intravenous, read-out: Acute toxicity for mice LD 50, intravenous) is 87 mg/kg; in [1] (oral, read-out: Acute toxicity for mice LD 50, orally), about 600 mg/kg. Besides, the ED50 was 1.9 mg/kg in series [2]; 400 mg/kg in [3]; 210 mg/kg in [4]; 80 mg/kg in [5]; 100 mg/kg in series [6]; over 300 mg/kg in [7]. For the same molecule, the ED50 turned out to be 25 mg/kg in series [8] and 0.05 mg/kg in series [9]. Further, in [10], the “antiserotonine properties ranking” value is “the greatest antiserotonine properties on the whole”. In addition, the EC50 in series [11] is 0.5 mg/L (≈ 1.45 µM); in [12] it was 0.12 mg/L (≈ 0.349 µM). For the same molecule, the “spasmolytic activity type / ranking” value in series [13] was “most effective”. Further, the “solubility in dilute hydrochloric acid” value in [14] (dilute hydrochloric acid) is recorded as “soluble”. Also, the “solubility in ethanol (alcohol)” value in series [14] (ethanol / alcohol) is recorded as “very soluble”. The solubility in water entry in [14] (water) is on record as “insoluble”.
